Measurements published in patent publication US8003096B2, “Means and methods for the recruitment and identification of stem cells” (Vlaams Interuniversitair Instituut voor Biotechnologie VZW, priority 2003, dated 2011).

What was measured:
plasmin = test: Plasmin activity in BM plasma, chromogenic assay; type: in vivo, mouse; details: WT mice
Method: (§1) To study the role of the plasminogen proteinase system with its plasminogen activators tPA and uPA, and active plasmin in stem/progenitor cell mobilization, mice lacking plasminogen (Plg^−/−), tPA (tPA^−/−), uPA (uPA^−/−) and both activators (tPA^−/−uPA^−/−) were used.^(17, 18) Age- and sex-matched mice were kept in IVC cages. Mobilization was induced either via a single sublethal injection i.v. of the myeloablative agent 5-fluorouracil (5-FU, 200-250 mg/kg), or via administration s.c. of recombinant human G-CSF (Filgrastim, Amgen, 200 μg/kg/d) for five consecutive days.^(12) Peripheral blood (PB) samples were obtained by retro-orbital bleeding under light anesthesia. Full blood counts were determined on the Abbott Cell Dyn 1300 hemocytometer. The number of mobilized hematopoietic progenitor cells (HPCs) in the circulation was determined via methylcellulose-based CFU-C assays (MethoCult, Stem Cell Technologies), per 10^5 peripheral blood mononuclear cells (PB MNCs).^(12) The number of mobilized hematopoietic stem cells (HSCs) in the circulation was quantified via splenic colony-forming assays (CFU-S), and evaluated for long-term engraftment via transplantation into lethally irradiated syngeneic wild-type recipients (9.5 Gy total body irradiation). […]

[1] = type: in vivo, mouse
Method: as §1
Wild-type mice and mice lacking Plg, both tPA and uPA, tPA, uPA, uPAR, PAI-1, α2AP, MMP-2 (kind gift from S. Itohara), MMP-3 (kind gift from J. Mudgett), MMP-9, MMP-12 (kind gift from S. Shapiro), and TIMP-1 (obtained by courtesy of P. Soloway) were used, and housed in barrier cages (individually ventilated) (Heymans et al. (1999), Nat. Med. 5:1135-42). […] Peripheral blood was repetitively sampled by retro-orbital puncture under light anesthesia, and full blood counts (EDTA buffered) were determined on a hemocytometer (Abbott Cell Dyn 1300). Peripheral blood smears were stained using Giemsa-May-Grunwald and at least 200 cells were analyzed. […]

## O=c1[nH]cc(F)c(=O)[nH]1 [5-FU, 5-fluorouracil]
plasmin; after single i.v. bolus, N=4
  plasmin activity in BM plasma: 75±14 U
plasmin; single i.v. bolus
  elevation of plasmin activity in BM plasma above baseline: five-fold
[1]; Plg−/− or tPA−/−uPA−/− mice, sublethal dose
  mice that died: up to 75%
[1]; WT mice, sublethal dose
  mice that did not survive: 10%
[1]; mouse, in vivo
  time to recovery from drop in WBC, RBC and platelet counts: 2.5-3 weeks
